Results reported in PubChem BioAssay AID330 (DTP/NCI, 2004).
“And” between values parts separate entries of the source, which are not always exact repeats. Equal values may be shown once. Inconclusive results and toxic doses are left out. Rule for the calls: active = survival T/C of 150% or more; inactive = T/C below 125% in these data.

System: P388 leukemia ip, CD2F1 mice, survival T/C
Assay: NCI In Vivo Anticancer Drug Screen. Data for tumor model P388 Leukemia (intraperitoneal) in CD2F1 (CDF1) mice
Conditions: endpoint: median survival time, higher = longer survival
In short: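 Mice carrying the transplanted tumor received test compound or vehicle. Survival was recorded in each group, and the value is the treated-group measurement divided by that of the vehicle-treated control group.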

[1] = dose: 100.0 mg/kg/injection, schedule: Q01DX001 (ip), vehicle: Klucel (hydroxypropylcellulose) (HPC)
[2] = dose: 200.0 mg/kg/injection, schedule: Q01DX001 (ip), vehicle: Klucel (hydroxypropylcellulose) (HPC)
[3] = dose: 12.5 mg/kg/injection, schedule: Q01DX009 (ip), vehicle: saline with Tween-80
[4] = dose: 25.0 mg/kg/injection, schedule: Q01DX009 (ip), vehicle: saline with Tween-80
[5] = dose: 50.0 mg/kg/injection, schedule: Q01DX009 (ip), vehicle: saline with Tween-80
[6] = dose: 100.0 mg/kg/injection, schedule: Q01DX009 (ip), vehicle: saline with Tween-80
[7] = dose: 50.0 mg/kg/injection, schedule: Q01DX009 (ip), vehicle: Klucel (hydroxypropylcellulose) (HPC)
[8] = dose: 100.0 mg/kg/injection, schedule: Q01DX009 (ip), vehicle: Klucel (hydroxypropylcellulose) (HPC)
[9] = dose: 200.0 mg/kg/injection, schedule: Q01DX009 (ip), vehicle: Klucel (hydroxypropylcellulose) (HPC)
[10] = dose: 50.0 mg/kg/injection, schedule: Q01DX009 (ip), vehicle: saline
[11] = dose: 100.0 mg/kg/injection, schedule: Q01DX009 (ip), vehicle: saline
[12] = dose: 50.0 mg/kg/injection, schedule: Q01DX005 (ip), vehicle: saline with Tween-80
[13] = dose: 100.0 mg/kg/injection, schedule: Q01DX005 (ip), vehicle: saline with Tween-80
[14] = dose: 200.0 mg/kg/injection, schedule: Q01DX005 (ip), vehicle: saline with Tween-80
[15] = dose: 25.0 mg/kg/injection, schedule: Q01DX009 (ip), vehicle: saline
[16] = dose: 60.0 mg/kg/injection, schedule: Q01DX005 (ip), vehicle: Klucel (hydroxypropylcellulose) (HPC)
[17] = dose: 240.0 mg/kg/injection, schedule: Q01DX005 (ip), vehicle: Klucel (hydroxypropylcellulose) (HPC)

Measured: T/C

Oc1cc2c(cc1C1COc3cc(OCc4ccccc4)ccc3C1)OCO2 (stereo unspecified)
inactive: dose: 50.0 mg/kg/injection, schedule: Q01DX001 (ip), vehicle: Klucel (hydroxypropylcellulose) (HPC) 95 % of control | [1] 90 % of control | [2] 93 % of control

Nc1ncnc(N)c1NC(=O)c1ccc(OCc2ccccc2)cc1
inactive: dose: 60.0 mg/kg/injection, schedule: Q01DX005 (ip), vehicle: saline with Tween-80 105 % of control | dose: 120.0 mg/kg/injection, schedule: Q01DX005 (ip), vehicle: saline with Tween-80 99 % of control | dose: 240.0 mg/kg/injection, schedule: Q01DX005 (ip), vehicle: saline with Tween-80 95 % of control

CCOC(=O)c1nnn(Cc2ccccc2)c1N
inactive: [3] 104 % of control | [4] 100 % of control | [5] 100 % of control | [6] 104 % of control

CP1(=S)CCC2=C1CCc1cc(O)ccc12 (stereo unspecified)
inactive: [7] 104 % of control | [8] 104 % of control | [9] 101 % of control

C=C[C@@]1(C)CC(=O)[C@]2(O)[C@@]3(C)[C@@H](O)CCC(C)(C)[C@@H]3[C@H](O)[C@@H](OC(C)=O)[C@@]2(C)O1
inactive: dose: 6.25 mg/kg/injection, schedule: Q01DX005 (ip), vehicle: saline + Tween-80 + alcohol 95 % of control | dose: 12.5 mg/kg/injection, schedule: Q01DX005 (ip), vehicle: saline + Tween-80 + alcohol 102 % of control

COC(=O)CS(=O)(=O)CCCCS(=O)(=O)CC(=O)OC
inactive: [10] 99 % of control | [11] 99 % of control | dose: 200.0 mg/kg/injection, schedule: Q01DX009 (ip), vehicle: saline 103 % of control

CCCCNC(=O)c1ccccc1C(=O)NC1(C(=O)NCCCC)CCCC1
inactive: [12] 101 % of control | [13] 97 % of control | [14] 93 % of control

Cc1cccn2ccnc12
inactive: [15] 100 % of control and 93 % of control | [10] 100 % of control and 96 % of control | [11] 120 % of control and 94 % of control

CCN(CC)c1ccc2cc3ccc(=[N+](CC)CC)cc-3oc2c1
inactive: dose: 1.0 mg/kg/injection, schedule: Q01DX009 (ip), vehicle: saline 109 % of control

CCC/C(=N/NC(N)=O)C(OC)OC
inactive: dose: 37.5 mg/kg/injection, schedule: Q01DX009 (ip), vehicle: saline 92 % of control | dose: 75.0 mg/kg/injection, schedule: Q01DX009 (ip), vehicle: saline 90 % of control

O=C(O)CNC(=O)C(Cl)Cl
inactive: dose: 50.0 mg/kg/injection, schedule: Q01DX005 (ip), vehicle: saline 100 % of control | dose: 100.0 mg/kg/injection, schedule: Q01DX005 (ip), vehicle: saline 100 % of control | dose: 200.0 mg/kg/injection, schedule: Q01DX005 (ip), vehicle: saline 90 % of control

CC(=O)Nc1cccc2c(C)cc(=O)[nH]c12
inactive: [1] 91 % of control | [2] 97 % of control | dose: 400.0 mg/kg/injection, schedule: Q01DX001 (ip), vehicle: Klucel (hydroxypropylcellulose) (HPC) 98 % of control

COC(=O)C1=C(C(=O)OC)C2C=CC1C1C(Br)C(Br)C21 (stereo unspecified)
inactive: [7] 100 % of control | [8] 102 % of control | [9] 100 % of control

O=C(O)Cc1c(-c2ccccc2)nc(=S)[nH]c1-c1[nH]c(=S)nc(-c2ccccc2)c1CC(=O)O
inactive: dose: 60.0 mg/kg/injection, schedule: Q01DX005 (ip), vehicle: saline 111 % of control | dose: 120.0 mg/kg/injection, schedule: Q01DX005 (ip), vehicle: saline 106 % of control | dose: 240.0 mg/kg/injection, schedule: Q01DX005 (ip), vehicle: saline 96 % of control

CCOC(=O)c1ccc(NC(=O)Nc2cc(OC)ccc2OC)cc1
inactive: [16] 98 % of control | dose: 120.0 mg/kg/injection, schedule: Q01DX005 (ip), vehicle: Klucel (hydroxypropylcellulose) (HPC) 99 % of control | [17] 101 % of control

O=[n+]1c2c(n([O-])c3cc(Cl)c(Cl)cc31)CCCC2
inactive: [3] 87 % of control | [4] 89 % of control | [5] 98 % of control and 86 % of control

NNc1n[nH]c(=S)n1N
inactive: dose: 6.25 mg/kg/injection, schedule: Q01DX009 (ip), vehicle: Klucel (hydroxypropylcellulose) (HPC) 94 % of control | dose: 6.25 mg/kg/injection, schedule: Q01DX009 (ip), vehicle: saline with Tween-80 109 % of control | dose: 12.5 mg/kg/injection, schedule: Q01DX009 (ip), vehicle: Klucel (hydroxypropylcellulose) (HPC) 94 % of control | [3] 100 % of control | dose: 25.0 mg/kg/injection, schedule: Q01DX009 (ip), vehicle: Klucel (hydroxypropylcellulose) (HPC) 106 % of control | [4] 104 % of control

CCCCCC(CN(C)C)C(=O)/C=C/c1ccc(Cl)c(Cl)c1 (stereo unspecified)
inactive: dose: 1.56 mg/kg/injection, schedule: Q01DX009 (ip), vehicle: saline 100 % of control | dose: 3.12 mg/kg/injection, schedule: Q01DX009 (ip), vehicle: saline 100 % of control | dose: 6.25 mg/kg/injection, schedule: Q01DX009 (ip), vehicle: saline 102 % of control | dose: 12.5 mg/kg/injection, schedule: Q01DX009 (ip), vehicle: saline 109 % of control | [15] 92 % of control

CCOC(=O)CSc1sc(C(=O)OCC)c(N)c1C#N
inactive: [5] 87 % of control

CCC1(CC)NC(=O)[C@H](C)N1S(C)(=O)=O
inactive: [12] 100 % of control | [13] 96 % of control | [14] 89 % of control

CNC(=O)NC(c1cc(OC)c(OC)c(OC)c1)c1cc2c(cc1O)OCO2 (stereo unspecified)
inactive: dose: 30.0 mg/kg/injection, schedule: Q01DX005 (ip), vehicle: Klucel (hydroxypropylcellulose) (HPC) 89 % of control | [16] 87 % of control and 92 % of control | [17] 87 % of control

CCCCCC/C=N/N1C(=O)C2C3C=CC(O3)C2C1=O (stereo unspecified)
inactive: [12] 103 % of control | [13] 108 % of control | [14] 95 % of control

CCN(CC)CCOC(C)(C)C#CC(C)(C)O
inactive: [12] 100 % of control | [13] 99 % of control | [14] 99 % of control

CC(=O)OC(C)(C)/N=N/C(C)(C)OC(C)=O
inactive: [4] 103 % of control | [5] 101 % of control | [6] 111 % of control | dose: 200.0 mg/kg/injection, schedule: Q01DX009 (ip), vehicle: saline with Tween-80 100 % of control

CS/C(N)=N/NC(=O)CCC(=O)Nc1cc(C)ccc1C
inactive: dose: 100.0 mg/kg/injection, schedule: Q04DX002 (ip), vehicle: saline with Tween-80 102 % of control | dose: 200.0 mg/kg/injection, schedule: Q04DX002 (ip), vehicle: saline with Tween-80 101 % of control | dose: 400.0 mg/kg/injection, schedule: Q04DX002 (ip), vehicle: saline with Tween-80 90 % of control
